Tests used:
[1] = human gut metagenome, 24 h, 2 µM
[2] = (§1) The drug is tested on WLS-038 corresponding to human gut metagenome with ENA study accession number: PRJEB37062 and ENA sample accession number: ERS12561745 for biotransformation under anaerobic condition. The drug concentrations were measured over 9 timepoints collected between 0 and 24 hours of incubation by liquid-chromatography-coupled mass spectrometry (LC–MS); details: 2 µM
[3] = as §1, with “Z-027” for “WLS-038”, “to” for “to human gut”, “ERS12561826” for “ERS12561745”; details: 2 µM
[4] = human gut metagenome, 24 h, 2 µM; remark: listed apart in the source
[5] = as §1, with “Z-018” for “WLS-038”, “pig” for “human”, “ERS12561817” for “ERS12561745”; details: 2 µM
[6] = as §1, with “Z-020” for “WLS-038”, “rabbit” for “human”, “ERS12561819” for “ERS12561745”; details: 2 µM
[7] = as §1, with “Z-008” for “WLS-038”, “to” for “to human gut”, “ERS12561808” for “ERS12561745”; details: 2 µM
[8] = human gut metagenome, 24 h, 2 µM; remark: listed apart in the source
[9] = as §1, with “Z-016” for “WLS-038”, “mouse” for “human”, “ERS12561815” for “ERS12561745”; details: 2 µM
[10] = human gut metagenome, 24 h, 2 µM; remark: listed apart in the source
[11] = human gut metagenome, 24 h, 2 µM; remark: listed apart in the source
[12] = as §1, with “Z-023” for “WLS-038”, “to” for “to human gut”, “ERS12561822” for “ERS12561745”; details: 2 µM
[13] = as §1, with “Z-006” for “WLS-038”, “mouse” for “human”, “ERS12561806” for “ERS12561745”; details: 2 µM
[14] = as §1, with “Z-010” for “WLS-038”, “to” for “to human gut”, “ERS12561810” for “ERS12561745”; details: 2 µM
[15] = as §1, with “WLS-350” for “WLS-038”, “ERS12561789” for “ERS12561745”; details: 2 µM
[16] = human gut metagenome, 24 h, 2 µM; remark: listed apart in the source
[17] = as §1, with “Z-021” for “WLS-038”, “to” for “to human gut”, “ERS12561820” for “ERS12561745”; details: 2 µM
[18] = as §1, with “WLS-007” for “WLS-038”, “ERS12561742” for “ERS12561745”; details: 2 µM
[19] = human gut metagenome, 24 h, 2 µM; remark: listed apart in the source
[20] = as §1, with “WLS-170” for “WLS-038”, “ERS12561762” for “ERS12561745”; details: 2 µM
Further: call rule not given here.

SMILES | Bacterial Biotransformation [1] | Bacterial Biotransformation [2] | Bacterial Biotransformation [3] | Bacterial Biotransformation [4] | Bacterial Biotransformation [5] | Bacterial Biotransformation [6] | Bacterial Biotransformation [7] | Bacterial Biotransformation [8] | Bacterial Biotransformation [9] | Bacterial Biotransformation [10] | Bacterial Biotransformation [11] | Bacterial Biotransformation [12] | Bacterial Biotransformation [13] | Bacterial Biotransformation [14] | Bacterial Biotransformation [15] | Bacterial Biotransformation [16] | Bacterial Biotransformation [17] | Bacterial Biotransformation [18] | Bacterial Biotransformation [19] | Bacterial Biotransformation [20]
O=P(O)(O)O.c1ccc(CN(CC2=NCCN2)c2ccccc2)cc1 [ANTAZOLINE PHOSPHATE] | Compound NOT metabolized | Compound NOT metabolized | Compound NOT metabolized | Compound metabolized | Compound NOT metabolized | Compound NOT metabolized | Compound NOT metabolized | Compound NOT metabolized | Compound NOT metabolized | Compound NOT metabolized | Compound NOT metabolized | Compound NOT metabolized | Compound NOT metabolized | Compound metabolized | Compound NOT metabolized | Compound NOT metabolized | Compound NOT metabolized | Compound metabolized | Compound NOT metabolized | Compound metabolized
COc1cc2nc(N3CCN(C(=O)c4ccco4)CC3)nc(N)c2cc1OC [PRAZOSIN] | Compound NOT metabolized | Compound NOT metabolized | Compound NOT metabolized | Compound NOT metabolized | Compound NOT metabolized | Compound NOT metabolized | Compound NOT metabolized | Compound metabolized | Compound NOT metabolized | Compound NOT metabolized | Compound NOT metabolized | Compound NOT metabolized | Compound NOT metabolized | Compound NOT metabolized | Compound NOT metabolized | Compound NOT metabolized | Compound NOT metabolized | Compound NOT metabolized | Compound NOT metabolized | Compound metabolized
COCCc1ccc(OCC(O)CNC(C)C)cc1.COCCc1ccc(OCC(O)CNC(C)C)cc1.O=C(O)C(O)C(O)C(=O)O (stereo not given) [METOPROLOL TARTRATE] | Compound NOT metabolized | Compound NOT metabolized | Compound NOT metabolized | Compound NOT metabolized | Compound NOT metabolized | Compound NOT metabolized | Compound NOT metabolized | Compound metabolized | Compound NOT metabolized | Compound metabolized | Compound NOT metabolized | Compound NOT metabolized | Compound NOT metabolized | Compound metabolized | Compound metabolized | Compound metabolized | Compound NOT metabolized | Compound NOT metabolized | Compound NOT metabolized | Compound metabolized
OCCN1CCN(CCCN2c3ccccc3Sc3ccc(C(F)(F)F)cc32)CC1 [FLUPHENAZINE] | Compound metabolized | Compound metabolized | Compound NOT metabolized | Compound metabolized | Compound NOT metabolized | Compound NOT metabolized | Compound NOT metabolized | Compound NOT metabolized | Compound NOT metabolized | Compound metabolized | Compound NOT metabolized | Compound metabolized | Compound metabolized | Compound metabolized | Compound metabolized | Compound metabolized | Compound metabolized | Compound NOT metabolized | Compound NOT metabolized | Compound metabolized
Fc1ccc([C@@H]2CCNC[C@H]2COc2ccc3c(c2)OCO3)cc1 [PAROXETINE] | Compound NOT metabolized | Compound metabolized | Compound NOT metabolized | Compound metabolized | Compound NOT metabolized | Compound NOT metabolized | Compound NOT metabolized | Compound metabolized | Compound NOT metabolized | Compound metabolized | Compound NOT metabolized | Compound metabolized | Compound NOT metabolized | Compound metabolized | Compound metabolized | Compound metabolized | Compound metabolized | Compound NOT metabolized | Compound NOT metabolized | Compound metabolized
CC(C)(C#N)c1cc(Cn2cncn2)cc(C(C)(C)C#N)c1 [ANASTROZOLE] | Compound NOT metabolized | Compound NOT metabolized | Compound NOT metabolized | Compound NOT metabolized | Compound NOT metabolized | Compound NOT metabolized | Compound NOT metabolized | Compound NOT metabolized | Compound NOT metabolized | Compound NOT metabolized | Compound NOT metabolized | Compound metabolized | Compound NOT metabolized | Compound NOT metabolized | Compound metabolized | Compound metabolized | Compound metabolized | Compound NOT metabolized | Compound NOT metabolized | Compound metabolized
CCN(CC)CCOC(=O)C(Cc1cccc2ccccc12)CC1CCCO1.O=C(O)C(=O)O (stereo not given) [NAFRONYL OXALATE] | Compound NOT metabolized | Compound metabolized | Compound NOT metabolized | Compound metabolized | Compound metabolized | Compound metabolized | Compound NOT metabolized | Compound metabolized | Compound metabolized | Compound metabolized | Compound metabolized | Compound metabolized | Compound metabolized | Compound metabolized | Compound metabolized | Compound metabolized | Compound metabolized | Compound metabolized | Compound NOT metabolized | Compound metabolized
CNC(=C[N+](=O)[O-])NCCSCc1ccc(CN(C)C)o1 [RANITIDINE] | Compound metabolized | Compound NOT metabolized | Compound NOT metabolized | Compound metabolized | Compound metabolized | Compound metabolized | Compound NOT metabolized | Compound metabolized | Compound metabolized | Compound metabolized | Compound metabolized | Compound metabolized | Compound metabolized | Compound metabolized | Compound NOT metabolized | Compound NOT metabolized | Compound NOT metabolized | Compound NOT metabolized | Compound NOT metabolized | Compound NOT metabolized

Source: ChEMBL document CHEMBL5724914, “Linking interpersonal differences in gut microbiota composition and drug biotransformation activity” (2024)
